In BindingDB's records for doi:10.1021/jm00107a033 (Virginia Commonwealth University, 1991) one finds Ki data, which are given here for twelve molecules.

A short description of experiment [1]: Binding affinity towards sigma receptor in guinea pig cerebral homogenate using [3H]DTG as radioligand.
A short description of experiment [2]: Binding affinity towards sigma opioid receptor in guinea pig cerebral homogenate using [3H]DTG as radioligand.
A short description of experiment [3]: Binding affinity towards sigma opioid receptor was determined in guinea pig cerebral homogenate using [3H]haloperidol as radioligand.

By Ki is commonly meant a measure of affinity in units of concentration, obtained from inhibition or displacement. In experiment [1], `CC(Cc1ccccc1)NCCCCc1ccccc1` (stereo not drawn) gave an inhibition constant Ki of 9.3 nM. On the same count and under the same terms, as for `C[C@H](Cc1ccccc1)NCCOc1ccccc1`, the figure is 45 nM. The molecule `C[C@@H](Cc1ccccc1)N(C)CCCCCc1ccccc1` yielded an inhibitory constant (Ki) in experiment [1] of 2.6 nM. This Ki lies about 17-fold lower than the previous one. The same measure, in the same setting: as for `C[C@H](Cc1ccccc1)NCCC(=O)c1ccccc1`, the figure is 56 nM; as for `C=CCN1CCC2(C)c3cc(O)ccc3CC1C2C` (stereo not drawn) [3-Allyl-8-hydroxy-6,11-dimethyl-1,2,3,4,5,6-hexahydro-2,6-methano-benzo[d]azocinium], 429 nM.

On to `C[C@H](Cc1ccccc1)NCCc1ccccc1` [((R)-1-Methyl-2-phenyl-ethyl)-phenethyl-amine], for which the Ki in experiment [2] was determined as 60 nM; in experiment [3], 61 nM. Molecule `C[C@@H](Cc1ccccc1)NCCCCc1ccccc1` [((S)-1-Methyl-2-phenyl-ethyl)-(4-phenyl-butyl)-amine] came in with a Ki in experiment [1] of 6.6 nM. That is a single-digit nanomolar value. In the case of `C[C@@H](Cc1ccccc1)NCCCCCc1ccccc1` [((S)-1-Methyl-2-phenyl-ethyl)-(5-phenyl-pentyl)-amine], the inhibition constant Ki in experiment [1] turned out to be 6.3 nM.

`C[C@@H](Cc1ccccc1)NCCc1ccccc1` [((S)-1-Methyl-2-phenyl-ethyl)-phenethyl-amine] came in with a Ki in experiment [1] of 31 nM. Regarding `C[C@@H](N)Cc1ccccc1` [(R)-amphetamine], in experiment [1], the Ki turned out to be 46400 nM. This Ki is about 1500-fold higher than that of the molecule before.

In the case of `CCN[C@H](C)Cc1ccccc1` [Adiparthrol], the Ki in experiment [1] is 660 nM. In experiment [1], `C[C@H](Cc1ccccc1)NCc1ccccc1` [N-Benzylamphetamine (Bam)] yielded an inhibitory constant (Ki) of 117 nM. This Ki lies about 5.6-fold lower than the previous one.
